Assay results taken from publication PMC11922053 (Science Advances, 2025).
Where a SMILES comes first, the peptide text is derived from it. Bridges are numbered along the chain shown (N, C = ends). [ ]: non-standard residue; d: D form. The star is where a group is joined. Biotin = O=C1N[C@H]2[C@H](CS[C@H]2CCCCC(=O)*)N1; 2Nal = N[C@@H](Cc1ccc2ccccc2c1)C(=O)O; Gly(cPent) = N[C@H](C(=O)O)C1CCCC1; Hyp = O=C(O)[C@@H]1C[C@@H](O)CN1; Pen = CC(C)(S)[C@H](N)C(=O)O; Api = NC1(C(=O)O)CCNCC1; Ahx = NCCCCCC(=O)O

Biological target: chymotrypsin (Bos taurus, UniProt P00766)
Assay: Protease stability assay with chymotrypsin
Assay type: in vitro ADME
Conditions: NCBP-4 versus CBP; 50:1 by mass, up to 30 min, LC-MS

CC1(C)SSC[C@H](NC(=O)[C@H](Cc2ccccc2)NC(=O)[C@@H](NC(=O)[C@H](Cc2ccccc2)NC(=O)C2(NC(=O)[C@H](Cc3ccc4ccccc4c3)NC(=O)[C@H](CCCCN)NC(=O)CCCCCNC(=O)[C@@H](N)CCCCNC(=O)CCCC[C@@H]3SC[C@@H]4NC(=O)N[C@@H]43)CCNCC2)C2CCCC2)C(=O)N2C[C@H](O)C[C@H]2C(=O)N[C@@H](Cc2ccccc2)C(=O)N[C@@H](Cc2ccc(O)cc2)C(=O)N[C@@H](Cc2ccc(O)cc2)C(=O)N[C@@H](CCCCN)C(=O)N2C[C@H](O)C[C@H]2C(=O)N[C@@H]1C(=O)N[C@@H](CCCCN)C(N)=O [NCBP-4] (H-K(Biotin)[Ahx]K[2Nal][Api]F[Gly(cPent)]FC[Hyp]FYYK[Hyp][Pen]K-NH2; disulfide 9-16; N-terminus assumed)
fold increase in half-life with chymotrypsin relative to CBP: 40 fold
